Reference: patent publication US20200188466A1, “COMPOSITIONS OF SCHISANDRA EXTRACTS AND METHODS THEREOF” (Reyoung Corporation, priority 2017, published 2020)

Test: in vivo
Parameters: species or system Sprague Dawley rats
Settings: male, Sprague Dawley, rat, po, 2.4 mg/kg
Description: 42 Male Sprague Dawley rats (weight, 220-280 g) were maintained on a 12-hour light/dark cycle with free access to water and lab chow for 10-14 hours prior to the experiment. Rats were randomly divided into 7 groups (n=6/group) and groups 2-7 received 0 mg/kg, 6.0 mg/kg, and 12.0 mg/kg, 24.0 mg/kg, 48.0 mg/kg and 60.0 mg/kg of Schisandrin A in 1% CMC-Na (300-800 cps) via oral administration, respectively. After 5 minutes, all the groups received 2.4 mg/kg of triptolide in a solution of 2% DMSO-98% Sterile Water via oral administration.
After triptolide treatment, blood samples were collected from individual rat at 5 min, 10 min, 15 min, 20 min, 30 min, 45 min, 1 h, 2 h, 4 h, 8 h, and 24 h, respectively. Plasma was separated by centrifugation at 8000 rpm for 6 minutes at 4° C. and kept at −80° C. until analysis. Plasma homogenate was injected into LC-MS/MS for analysis.

AUC(0-t) (AUC0→t of triptolide): 31.5 ± 25.4 ng·h/mL | AUC(0-inf) (AUC0→∞ of triptolide): 31.5 ± 25.4 ng·h/mL | Cmax (Cmax of triptolide): 56.4 ± 25.1 ng/mL | MRT last (MRT0→t of triptolide): 25.8 ± 9.6 min | MRT inf (MRT0→∞ of triptolide): 39.6 ± 21 min | half-life (T1/2 of triptolide): 25.2 ± 13.8 min | Tmax (Tmax of triptolide): 9.96 ± 5.4 min
SMILES: CC(C)[C@]12O[C@H]1[C@@H]1O[C@]13[C@]1(O[C@H]1C[C@H]1C4=C(CC[C@@]13C)C(=O)OC4)[C@@H]2O [triptolide]
